The source made the active and inactive calls. Where only a bound is given, the exact number is not on record here.

For data set [1], the species on record is Danio rerio. Description: Ex vivo activation of Foxj1-mediated motile ciliogenesis pathway in Tg(foxj1a:eGFP)hsc16 zebrafish TL embryo assessed as EGFP expression in spinal ependymal cells at 5 uM incubated for 24 hrs by fluorescent stereomicroscope analysis. It is filed as functional, cell-based.
The species entered for data set [2] is Danio rerio. Description: Ex vivo activation of Foxj1-mediated motile ciliogenesis pathway in Tg(foxj1a:eGFP)hsc16 zebrafish TL embryo assessed as EGFP expression in spinal ependymal cells at 2.5 uM incubated for 24 hrs by fluorescent stereomicroscope analysis. It is filed as functional, cell-based.
Data set [3] has as its target Cytochrome P450 2C9 (Homo sapiens, UniProt P11712). Description: Inhibition of human CYP2C9 using sulfaphenazole as […] relative to control. In kind it is ADME.
Data set [4] in a line: Volume of distribution at steady state in male mouse at 1 mg/kg, iv. It is filed as ADME, organism-based. To be noted: in vivo, read-out: Vdss.
Data set [5] has as its system mTEC. Briefly: Ex vivo activation of Foxj1-mediated motile ciliogenesis pathway in wild type C57BL/6 mTEC (mouse tracheal epithelial cells) assessed as increase in multiciliated cells at 5 uM administered for 4 days starting from airlift interface day 0 with replacement of fresh media for every two days by DAPI staining based confocal laser microscopic analysis. In kind it is functional, cell-based. The note with it: time 4.0 day.

Data set [6] can be described thus: Clearance in male mouse at 1 mg/kg, iv. In kind it is ADME, organism-based. The note with it: in vivo.
The nature of data set [7]: Metabolic stability in mouse liver microsomes assessed as compound remaining incubated for 30 mins. It is filed as ADME, Microsome. To be noted: read-out: Stability. In general terms: Microsomes from liver hold many membrane-bound enzymes, among them those of drug oxidation.
A short description of data set [8]: Metabolic stability in rat liver microsomes assessed as compound remaining incubated for 30 mins. It is filed as ADME, Microsome. The note with it: read-out: Stability.
Data set [9] is described as follows: Metabolic stability in human liver microsomes assessed as compound remaining incubated for 30 mins. In kind it is ADME, Microsome. To be noted: read-out: Stability.
The target in data set [10] is T1, Cytochrome P450 1A2 (Homo sapiens, UniProt P05177).
T1 sequence (P05177 whole entry): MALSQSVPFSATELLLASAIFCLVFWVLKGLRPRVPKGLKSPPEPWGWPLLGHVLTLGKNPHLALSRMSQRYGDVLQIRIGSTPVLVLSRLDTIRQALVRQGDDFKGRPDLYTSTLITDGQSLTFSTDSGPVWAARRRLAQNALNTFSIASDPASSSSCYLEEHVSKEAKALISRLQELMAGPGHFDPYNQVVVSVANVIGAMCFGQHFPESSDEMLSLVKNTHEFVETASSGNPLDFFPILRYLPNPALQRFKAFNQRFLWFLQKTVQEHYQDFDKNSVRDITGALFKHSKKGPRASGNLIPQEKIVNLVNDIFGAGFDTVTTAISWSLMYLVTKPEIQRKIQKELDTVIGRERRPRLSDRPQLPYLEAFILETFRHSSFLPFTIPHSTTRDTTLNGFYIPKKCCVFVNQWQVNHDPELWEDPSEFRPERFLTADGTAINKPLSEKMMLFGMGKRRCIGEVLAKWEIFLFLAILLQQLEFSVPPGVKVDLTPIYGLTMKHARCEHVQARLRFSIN
Briefly: Inhibition of human CYP1A2 using alpha-naphthoflavone as […] relative to control. In kind it is ADME.

For data set [11], the target named is Cytochrome P450 2C19 (Homo sapiens, UniProt P33261). Briefly: Inhibition of human CYP2C19 using amitriptyline as substrate relative to control. In kind it is ADME.
Sequence of Cytochrome P450 2C19 (P33261 whole entry): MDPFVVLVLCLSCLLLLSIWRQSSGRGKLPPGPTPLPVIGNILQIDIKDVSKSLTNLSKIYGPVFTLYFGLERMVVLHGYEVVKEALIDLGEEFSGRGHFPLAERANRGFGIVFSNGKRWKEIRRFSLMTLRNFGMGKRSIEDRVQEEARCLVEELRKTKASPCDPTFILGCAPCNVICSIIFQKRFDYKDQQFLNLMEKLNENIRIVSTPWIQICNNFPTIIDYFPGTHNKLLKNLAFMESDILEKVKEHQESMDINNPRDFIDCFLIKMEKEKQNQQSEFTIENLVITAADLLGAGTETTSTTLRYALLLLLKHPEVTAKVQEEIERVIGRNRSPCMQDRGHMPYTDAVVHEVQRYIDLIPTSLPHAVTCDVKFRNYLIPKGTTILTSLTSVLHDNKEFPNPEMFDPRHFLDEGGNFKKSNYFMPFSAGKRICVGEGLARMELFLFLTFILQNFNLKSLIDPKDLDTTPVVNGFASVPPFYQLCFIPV
The target in data set [12] is Cytochrome P450 2D6 (Homo sapiens, UniProt P10635). Description: Inhibition of human CYP2D6 using quinidine as […] relative to control. In kind it is ADME.
Sequence of Cytochrome P450 2D6 (P10635 whole entry): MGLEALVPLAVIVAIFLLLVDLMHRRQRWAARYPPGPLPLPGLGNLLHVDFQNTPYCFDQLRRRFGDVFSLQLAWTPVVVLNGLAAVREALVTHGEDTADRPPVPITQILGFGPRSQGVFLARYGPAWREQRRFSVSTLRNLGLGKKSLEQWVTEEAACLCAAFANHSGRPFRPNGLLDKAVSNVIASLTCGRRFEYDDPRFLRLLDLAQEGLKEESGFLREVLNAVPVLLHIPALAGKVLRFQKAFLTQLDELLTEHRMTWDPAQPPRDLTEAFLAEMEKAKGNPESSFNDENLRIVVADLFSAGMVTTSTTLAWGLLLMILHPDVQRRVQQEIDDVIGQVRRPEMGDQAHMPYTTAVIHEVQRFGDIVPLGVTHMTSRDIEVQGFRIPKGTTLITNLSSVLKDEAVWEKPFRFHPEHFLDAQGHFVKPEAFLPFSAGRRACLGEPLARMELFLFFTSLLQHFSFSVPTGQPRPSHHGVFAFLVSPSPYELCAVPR
Data set [13] addresses Cytochrome P450 3A4 (Homo sapiens, UniProt P08684). Description: Inhibition of human CYP3A4 using ketoconazole as […] relative to control. It is filed as ADME.
Data set [14] deals with hERG (Homo sapiens, UniProt Q12809). Description: Inhibition of hERG at 10 uM relative to control. In kind it is toxicity.
Sequence of hERG (Q12809 whole entry): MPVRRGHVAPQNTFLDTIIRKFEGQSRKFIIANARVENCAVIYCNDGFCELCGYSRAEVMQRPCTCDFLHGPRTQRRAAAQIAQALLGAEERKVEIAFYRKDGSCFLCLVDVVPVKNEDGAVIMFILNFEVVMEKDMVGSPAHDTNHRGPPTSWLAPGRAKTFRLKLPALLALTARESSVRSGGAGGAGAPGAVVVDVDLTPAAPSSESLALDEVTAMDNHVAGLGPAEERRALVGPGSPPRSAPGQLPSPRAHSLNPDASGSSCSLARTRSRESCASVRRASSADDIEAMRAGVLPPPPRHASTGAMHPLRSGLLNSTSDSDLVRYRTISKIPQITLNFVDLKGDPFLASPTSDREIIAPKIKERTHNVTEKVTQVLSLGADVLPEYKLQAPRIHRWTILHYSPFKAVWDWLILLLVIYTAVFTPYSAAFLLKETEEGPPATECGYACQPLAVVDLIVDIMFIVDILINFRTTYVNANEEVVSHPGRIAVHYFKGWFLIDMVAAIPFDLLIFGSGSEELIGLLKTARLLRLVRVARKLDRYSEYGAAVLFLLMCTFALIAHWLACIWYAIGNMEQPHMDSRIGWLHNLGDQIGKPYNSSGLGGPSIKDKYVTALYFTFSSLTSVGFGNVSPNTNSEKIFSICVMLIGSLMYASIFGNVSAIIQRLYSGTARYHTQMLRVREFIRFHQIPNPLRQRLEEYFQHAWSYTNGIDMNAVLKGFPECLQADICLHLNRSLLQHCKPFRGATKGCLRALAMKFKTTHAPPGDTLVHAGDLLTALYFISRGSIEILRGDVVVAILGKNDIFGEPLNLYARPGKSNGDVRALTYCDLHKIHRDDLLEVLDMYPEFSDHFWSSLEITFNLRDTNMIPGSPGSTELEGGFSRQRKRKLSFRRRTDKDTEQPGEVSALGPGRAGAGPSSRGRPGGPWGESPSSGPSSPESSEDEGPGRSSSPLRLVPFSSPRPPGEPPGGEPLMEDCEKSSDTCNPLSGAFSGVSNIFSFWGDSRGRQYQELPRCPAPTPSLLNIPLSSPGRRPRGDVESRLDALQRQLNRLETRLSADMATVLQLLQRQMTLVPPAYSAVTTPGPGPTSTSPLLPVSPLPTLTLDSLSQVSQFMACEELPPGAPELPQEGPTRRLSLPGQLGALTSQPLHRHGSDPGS
The nature of data set [15]: Cytotoxicity against African green monkey Vero cells. In kind it is toxicity, cell-based, Chlorocebus sabaeus.
The nature of data set [16]: Cytotoxicity against human HFL1 cells. It is filed as toxicity, cell-based.
The nature of data set [17]: Cytotoxicity against mouse L929 cells. In kind it is toxicity, cell-based.
Data set [18] in a line: Cytotoxicity against mouse NIH3T3 cells. It is filed as toxicity, cell-based.
Data set [19] can be described thus: Cytotoxicity against CHO-K1 cells. To be noted: Chinese hamster. In kind it is toxicity, cell-based, Cricetulus griseus.
A short description of data set [20]: Tmax in male mouse at 5 mg/kg, po. To be noted: in vivo. It is filed as ADME, organism-based.
The nature of data set [21]: Cmax in male mouse at 5 mg/kg, po. In kind it is ADME, organism-based. To be noted: in vivo.
The nature of data set [22]: Half life in male mouse at 1 mg/kg, iv. The note with it: in vivo. In kind it is ADME, organism-based.
The nature of data set [23]: Half life in male mouse at 5 mg/kg, po. It is filed as ADME, organism-based. The note with it: in vivo.
The nature of data set [24]: AUCt in male mouse at 1 mg/kg, iv. In kind it is ADME, organism-based. To be noted: in vivo.
The nature of data set [25]: AUCt in male mouse at 5 mg/kg, po. It is filed as ADME, organism-based. To be noted: in vivo.
Data set [26] in a line: AUCinfinity in male mouse at 1 mg/kg, iv. In kind it is ADME, organism-based. To be noted: in vivo.
Data set [27] is described as follows: AUCinfinity in male mouse at 5 mg/kg, po. To be noted: in vivo. In kind it is ADME, organism-based.
Data set [28] can be described thus: Oral bioavailability in male mouse at 5 mg/kg. In kind it is ADME, organism-based. The note with it: in vivo.
For data set [29], the system named is Mus musculus. Description: Restoration of motile cilia in porcine pancreatic elastase-induced COPD C57BL/6 mouse model assessed as decrease in airway damage in trachea at 2 mg/kg, ip administered every other day for 2 weeks and measured 24 hrs post last dose by DAPI staining based confocal microscopic analysis. It is filed as functional, organism-based.
For data set [30], the system named is Mus musculus. Description: Restoration of motile cilia in porcine pancreatic elastase-induced COPD C57BL/6 mouse model assessed as increase in motile cilia in trachea at 2 mg/kg, ip administered every other day for 2 weeks and measured 24 hrs post last dose by DAPI staining based confocal microscopic analysis. It is filed as functional, organism-based.

Sequence of Cytochrome P450 2C9 (P11712 whole entry): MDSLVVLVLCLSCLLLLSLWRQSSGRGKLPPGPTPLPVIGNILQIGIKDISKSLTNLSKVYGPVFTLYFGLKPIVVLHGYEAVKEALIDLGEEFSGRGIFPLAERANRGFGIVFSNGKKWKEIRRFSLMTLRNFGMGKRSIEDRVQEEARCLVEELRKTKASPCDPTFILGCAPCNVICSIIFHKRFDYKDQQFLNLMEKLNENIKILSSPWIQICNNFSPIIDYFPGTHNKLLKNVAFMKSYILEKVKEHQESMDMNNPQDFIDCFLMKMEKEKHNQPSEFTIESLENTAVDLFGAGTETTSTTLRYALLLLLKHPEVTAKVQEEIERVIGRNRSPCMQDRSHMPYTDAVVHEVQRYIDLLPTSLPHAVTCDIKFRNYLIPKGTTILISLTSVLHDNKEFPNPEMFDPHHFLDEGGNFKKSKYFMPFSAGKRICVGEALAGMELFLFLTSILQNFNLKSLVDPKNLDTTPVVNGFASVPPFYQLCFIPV
Sequence of Cytochrome P450 3A4 (P08684 whole entry): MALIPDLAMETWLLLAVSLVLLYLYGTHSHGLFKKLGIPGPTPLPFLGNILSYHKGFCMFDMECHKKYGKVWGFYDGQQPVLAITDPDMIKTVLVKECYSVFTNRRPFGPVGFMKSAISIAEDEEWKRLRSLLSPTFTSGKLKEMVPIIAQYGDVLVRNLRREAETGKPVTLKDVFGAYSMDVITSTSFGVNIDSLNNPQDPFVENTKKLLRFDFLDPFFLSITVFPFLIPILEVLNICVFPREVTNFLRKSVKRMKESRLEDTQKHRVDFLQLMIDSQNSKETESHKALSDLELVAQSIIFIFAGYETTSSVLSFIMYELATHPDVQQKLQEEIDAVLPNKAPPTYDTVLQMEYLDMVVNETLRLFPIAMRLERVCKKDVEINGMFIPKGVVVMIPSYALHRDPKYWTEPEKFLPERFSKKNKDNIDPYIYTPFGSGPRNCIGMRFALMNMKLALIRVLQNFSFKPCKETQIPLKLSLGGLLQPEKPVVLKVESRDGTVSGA

Regarding `Nc1cccc(-c2cnc(N3CCNCC3)c(-c3nc4ccccc4o3)c2)c1`, the outcome in data set [1] was Active.
`Nc1cccc(-c2cnc(N3CCOCC3)c(-c3nc4ccccc4o3)c2)c1`: the result in data set [1] was Active.
Take `CN1CCN(c2ncc(-c3cccc(N)c3)cc2-c2nc3ccccc3o2)CC1`: in [1], the result was Active.
For the molecule `CC(C)(C)Nc1ncc(-c2cccnc2)cc1-c1nc2ccccc2o1`, the result in data set [1] was Active.
Same read-out and setting: for `CC(C)(C)Nc1ncc(-c2ccoc2)cc1-c1nc2ccccc2o1` the value was “Active”.
Consider `CC(C)(C)Nc1ncc(-c2cnn(CCC(=O)O)c2)cc1-c1nc2ccccc2o1`, for which the outcome in [2] was Active.
As a reminder, the clearance is a measure of how efficiently the substance is removed, as volume per time. A word on the inhibition: it is how much of the control response was suppressed. As a reminder, the IC50 is the concentration that inhibits the measured activity by half. In general, Tmax refers to the time at which the peak concentration occurs. The term Cmax denotes the peak of the concentration-time curve. The term half-life denotes the time needed for the level to fall by half in the phase considered. What is called AUC(0-t) is the area under the concentration-time curve up to a stated or last time point. The AUC(0-inf) is the area under the concentration-time curve extrapolated to infinity. Usually bioavailability stands for dose-corrected exposure relative to a reference, in per cent. As for `CC(C)(C)Nc1ncc(-c2cnn(C(C)(C)CC(=O)O)c2)cc1-c1nc2ccccc2o1`, the “inhibition (INH)” value is on record as 31.9% in data set [3]; 1.17% in data set [10]; 17.4% in [11]; below 1% in data set [12]; below 1% in data set [13]. For the same molecule, the Vd in [4] worked out at 0.4 L/kg. Also, the result in data set [1], in [2], in data set [5], in data set [29] and in data set [30] was Active. Further, the clearance in data set [6] is 1.33 mL/min/kg. Further, the remaining at 0.5 h in data set [7], in [8] and in data set [9] was above 99.9% in each case. This molecule also yielded an inhibition at 10 µM in data set [14] below 1%. The IC50 in data set [15], in [16], in data set [17], in [18] and in data set [19] was above 100 µM each time. In [20], the Tmax turned out to be 3.67 h. In [21], the Cmax came to 5160 ng/mL. In addition, the half-life in [22] was 3.51 h; in [23], 3.55 h. In addition, the area under the curve AUC(0-t) in data set [24] came to 12500 ng·h/mL; in data set [25], 53100 ng·h/mL. The AUC(0-inf) in data set [26] was 12600 ng·h/mL; in data set [27], 62900 ng·h/mL. In data set [28], the bioavailability was found to be 85%.
As to `CCCCNc1ncc(-c2cccc(N)c2)cc1-c1nc2ccccc2o1`, in [1], the result was Active.
On to `CNc1ncc(-c2cccc(N)c2)cc1-c1nc2ccccc2o1`, for which the outcome in [1] was Active.
As to `CC(C)(C)Nc1ncc(-c2ccccn2)cc1-c1nc2ccccc2o1`, the outcome in data set [1] was Active.
In the case of `Nc1cccc(-c2cnc(N3CCCCC3)c(-c3nc4ccccc4o3)c2)c1`, the result in [1] was Active.
Take `CC(C)(C)Nc1ncc(-c2cn[nH]c2)cc1-c1nc2ccccc2o1`: the outcome in data set [1] was Active.
For `CC(C)(C)Nc1ncc(-c2cnn(C(C)(C)CC(=O)O)c2)cc1-c1nc2ccccc2[nH]1`, the outcome in [1] was Active.
With `CC(C)(C)Nc1ncc(-c2ccsc2)cc1-c1nc2ccccc2o1`, the result in data set [1] was Active.
Turning to `CC(CC(=O)O)n1cc(-c2cnc(NC(C)(C)C)c(-c3nc4ccccc4o3)c2)cn1` (configuration not stated), the result in [2] was Active.
In the case of `CC(C)(C)Nc1ncc(-c2ccccc2)cc1-c1nc2ccccc2o1`, the result in data set [1] was Active.
As for `Nc1cccc(-c2cnc(N)c(-c3nc4ccccc4o3)c2)c1`, in data set [1], the outcome was inactive.
For the molecule `CC(C)(C)Nc1ncc(-c2cccc(N)c2)cc1-c1nc2ccccc2o1`, the outcome in [1] was Active.
